Data reported in patent publication US20110105382A1, “CALMODULIN-BINDING PEPTIDES THAT REDUCE CELL PROLIFERATION IN CANCER AND SMOOTH MUSCLE PROLIFERATION DISEASES” (priority 2007, published 2011).
“Also recorded” adds a separate entry of the source. Where no end group is shown, it is not given here.

What was measured:
[1] = system: cyclins E1/E2 double knockout MEF; experiment: Cell cycle analysis, cyclin E1/E2 double knockout MEF; format: cell-based, mouse; settings: starved cells, serum stimulation 10% FBS, 24 hr (peptide) or 20 hr (CMZ)
Method: (§1) Cell culture conditions The isolation and culture of primary mouse aortic VSMC have was performed according to methods previously described (Afroze T, Yang L L, Wang C, Gros R, Kalair W, Hogue A N, Mungrue I N, Zhu Z, Husain M. Calcineurin-independent regulation of plasma membrane Ca2+ ATPase-4 in the vascular smooth muscle cell cycle. Am J Physiol Cell Physiol. July 2003; 285(1):C88-95). VSMCs were grown in DMEM (GIBCO/BRL, Gaithersburg, Md.) supplemented with 10% FBS (Hyclone, Logan, Utah), 50 ng/mL platelet-derived growth factor (PDGF, Sigma) and 1% penicillin-streptomycin (GIBCO/BRL). For serum starvation, cells were grown to 60% to 70% confluence, washed twice with PBS, and cultured in starvation medium (0.25% FBS-supplemented DMEM) for 72 hours to achieve Go arrest. Progression to G1/S was brought about by stimulation with 10% FBS and 50 ng/mL PDGF for 24 hours. Cells and reagents for primary human aortic VSMC culture were purchased from Cascade Biologics. Human VSMC(C-007-5C) were grown in Medium 231 with Smooth Muscle Growth Supplement (SMGS) S-007-25 and 1% penicillin-streptomycin (GIBCO/BRL). […]
Flow cytometric analysis. […] Cells were counted in a flow cytometer (FACScan, BD Biosciences), and G0/G1, S, and G2/M cell percentages were calculated with Cell Quest software (BD Biosciences).

Cyclin E1/E2 KO MEF = experiment: 3H-thymidine incorporation assay, Cyclin E1/E2 KO MEF; format: cell-based, mouse; settings: 10 and 100 μM for 1.0 h, 48 h after treatment; listed as TAT-CBS
Method: as §1, with “Biologics.” for “Biologics. Human VSMC(C-007-5C) were grown in Medium 231 with Smooth Muscle Growth Supplement (SMGS) S-007-25 and 1% penicillin-streptomycin (GIBCO/BRL).”
(§2) ^3H-thymidine incorporation proliferation assay. […] Cells were grown at 37° C. and analyzed at 24, 48 and 72 h after ^3H-thymidine exposure. […] Solubilized contents of wells were removed and added to 2.5 ml of scintillation fluid (ReadySafe™ Cocktail, Beckman Coulter, Product No. 141349). Radioactivity was measured in a scintillation counter (Beckman Coulter, LS 6500).

[2] = system: primary human aortic VSMC; experiment: 3H-thymidine incorporation assay, human aortic VSMC; format: cell-based; settings: 10 and 100 μM for 1.0 h, 72 h after treatment; listed as TAT-CBS
Method: as §1, with “Biologics.” for “Biologics. Human VSMC(C-007-5C) were grown in Medium 231 with Smooth Muscle Growth Supplement (SMGS) S-007-25 and 1% penicillin-streptomycin (GIBCO/BRL).”
as §2

MEF = experiment: 3H-thymidine incorporation assay, MEF; format: cell-based, mouse; settings: 10 and 100 μM for 1.0 h, 48 h after treatment; listed as TAT-CBS
Method: as §1, with “Biologics.” for “Biologics. Human VSMC(C-007-5C) were grown in Medium 231 with Smooth Muscle Growth Supplement (SMGS) S-007-25 and 1% penicillin-streptomycin (GIBCO/BRL).”
as §2

[3] = system: A549 (human lung cancer cell); experiment: MTT proliferation assay, A549; format: cell-based; settings: 100 μM, MTT after 2 days
Method: (§3) Cell culture conditions The isolation and culture of primary mouse aortic VSMC have was performed according to methods previously described (Afroze T, Yang L L, Wang C, Gros R, Kalair W, Hogue A N, Mungrue I N, Zhu Z, Husain M. Calcineurin-independent regulation of plasma membrane Ca2+ ATPase-4 in the vascular smooth muscle cell cycle. Am J Physiol Cell Physiol. July 2003; 285(1):C88-95). VSMCs were grown in DMEM (GIBCO/BRL, Gaithersburg, Md.) supplemented with 10% FBS (Hyclone, Logan, Utah), 50 ng/mL platelet-derived growth factor (PDGF, Sigma) and 1% penicillin-streptomycin (GIBCO/BRL). For serum starvation, cells were grown to 60% to 70% confluence, washed twice with PBS, and cultured in starvation medium (0.25% FBS-supplemented DMEM) for 72 hours to achieve Go arrest. Progression to G1/S was brought about by stimulation with 10% FBS and 50 ng/mL PDGF for 24 hours. Cells and reagents for primary human aortic VSMC culture were purchased from Cascade Biologics. Human VSMC(C-007-5C) were grown in Medium 231 with Smooth Muscle Growth Supplement (SMGS) S-007-25 and 1% penicillin-streptomycin (GIBCO/BRL). Cyclin E1/E2 double knockout mouse embryonic fibroblasts (MEF) were kindly provided by Dr. P. Sicinski (Harvard Medical School), and maintained in DMEM with 10% FBS (Hyclone) and 1% penicillin-streptomycin (GIBCO/BRL). Go arrest of MEF was achieved by starvation for 48 h in medium lacking FBS. Mouse embryonic fibroblasts (MEF) were maintained for normal culture in 10% FBS-supplemented DMEM. For the starvation of MEF, cells were cultured in starvation medium without FBS for 48 hours to achieve Go arrest. HeLa (human cervical cancer cell), Saos-2 (human osteosarcoma cell) and A549 (human lung cancer cell) were cultured in 10% FBS-supplemented DMEM.
(§4) MTT colorimetric survival assay. Active mitochondria of living cells can cleave MTT to produce formazan, the amount of which is directly proportional to the number of living cells. Cell survival was assessed (Denizot, 1986). Cells in 96-well plate were washed two times with PBS followed by 4 hr of incubation at 37° C. with 1 mg/ml of MTT (in phenol red free DMEM supplemented with 2 mM of L-glutamine & 1 mM of sodium pyruvate) in a reaction volume of 100 μl. After removing MTT solution, DMSO was added to dissolve formazan crystals. Plate was shaken for 5 min at 55° C. for complete dissolve. Dye absorbance in viable cells was measured at 570 nm with 630 nm as a reference wavelength. All experiments were repeated at least 3 times, and each experimental condition was repeated in at least quadruplicate wells in each experiment.

[4] = system: HeLa (human cervical cancer cell); experiment: MTT proliferation assay, HeLa; format: cell-based; settings: 100 μM, MTT after 2 days
Method: as §3, §4

primary mouse aortic SMC = format: cell-based
Method: as §3, §4
Nucleofection. For peptides delivery via Nucleofector technology, 1×10^6 cells were harvested, resuspended in 100 μl of Nucleofector solution (for VSMC: Cat. No. VPI-1004; for MEF: Cat. No.: VPD-1005, both provided by Amaxa GmBH, Köln, Germany) and mixed with 100 nmole (in 10 μl) of each peptide. The cell solution was transferred into a kit-provided cuvette and positioned into a Nucleofector device. Subsequently, the transfection was performed with a single pulse using the preprogrammed nucleofection program (A-33 for VSMC; T-20 for MEF) according to the manufacturer's recommendation. Following nucleofection, the cells were transferred into 96-well plate (2K or 5K cells per well for MTT assay) or T25 culture flasks (for FACS analysis) containing pre-warmed stem cell medium using kit-provided plastic pipettes to prevent cell damage and the cells were cultured at 37° C. in 5% CO2.

[5] = system: Saos-2 (human osteosarcoma); experiment: MTT proliferation assay, Saos-2; format: cell-based; settings: 100 μM, MTT after 2 days
Method: as §3, §4

Compound | cell cycle progression into S phase, cyclins E1/E2 double knockout MEF [1] | 3H-thymidine incorporation (S-phase entry), Cyclin E1/E2 KO MEF (Cyclin E1/E2 KO MEF) | 3H-thymidine incorporation (S-phase entry), human aortic VSMC [2] | 3H-thymidine incorporation (S-phase entry), MEF (MEF) | proliferation of A549 cells (MTT) [3] | proliferation of HeLa cells (MTT) [4] | IC50 (primary mouse aortic SMC) [µM] | maximum level of inhibition of VSMC proliferation (primary mouse aortic SMC) [%] | proliferation of Saos-2 cells (MTT) [5]
Clc1ccc(C(c2ccc(Cl)cc2)n2cc[n+](CC(OCc3ccc(Cl)cc3Cl)c3ccc(Cl)cc3Cl)c2)cc1 (stereo not drawn) [calmidazolium] | did inhibit |  |  |  |  |  |  |  | 
RRRQRRKKRGGGAEFSARSRKRKANVTVFLQD [TAT-SEQ ID NO:2] |  | not and not able to produce an anti-proliferative effect | dose-dependent inhibitory effect; also recorded: inhibited; also recorded: dose-dependent, anti-proliferative effect | observed; also recorded: dose-dependent, anti-proliferative effect | inhibited | inhibited | 8.89 ± 1.24 | 70 | inhibited
